Here are results for nine compounds from ChEMBL document CHEMBL2203067, “Peptide-chlorambucil conjugates combat pgp-dependent drug efflux” (ACS Med Chem Lett, 2011).

The term inhibition denotes the drop in the measured response relative to a control, in per cent.

The source made the active and inactive calls. No cut-off for these calls is given here.

The test system of data set [1] is A2780. Kind of data set: Inhibition of Pgp-mediated drug efflux in human A2780 cells overexpressing Pgp assessed as increase in intracellular adriamycin level at 5 uM after 40 mins by flow cytometry analysis. It counts as cell-based. On the technique in general: Flow cytometry measures light scatter and fluorescence of single cells or particles in a stream.
A short description of data set [2]: Cellular uptake in wild type human A2780 cell mitochondria at 5 uM after 40 mins by confocal microscopic analysis. The settings on record: a2780, 40 min. It counts as ADME.
The subject of data set [3] is A2780. Kind of data set: Inhibition of Pgp-mediated drug efflux in adriamycin-resistant human A2780 cells assessed as localization of adriamycin from plasma membrane to intracellular sites at 5 uM after 5 mins by confocal microscopic analysis. It counts as cell-based.
The target in data set [4] is ATP-dependent translocase ABCB1 (Homo sapiens, UniProt P08183). Kind of data set: Inhibition of p-glycoprotein in adriamycin-resistant human A2780 cell at 5 uM after 40 mins by confocal microscopic analysis. As to conditions: a2780, 40 min.
Sequence of ATP-dependent translocase ABCB1 (P08183 whole entry): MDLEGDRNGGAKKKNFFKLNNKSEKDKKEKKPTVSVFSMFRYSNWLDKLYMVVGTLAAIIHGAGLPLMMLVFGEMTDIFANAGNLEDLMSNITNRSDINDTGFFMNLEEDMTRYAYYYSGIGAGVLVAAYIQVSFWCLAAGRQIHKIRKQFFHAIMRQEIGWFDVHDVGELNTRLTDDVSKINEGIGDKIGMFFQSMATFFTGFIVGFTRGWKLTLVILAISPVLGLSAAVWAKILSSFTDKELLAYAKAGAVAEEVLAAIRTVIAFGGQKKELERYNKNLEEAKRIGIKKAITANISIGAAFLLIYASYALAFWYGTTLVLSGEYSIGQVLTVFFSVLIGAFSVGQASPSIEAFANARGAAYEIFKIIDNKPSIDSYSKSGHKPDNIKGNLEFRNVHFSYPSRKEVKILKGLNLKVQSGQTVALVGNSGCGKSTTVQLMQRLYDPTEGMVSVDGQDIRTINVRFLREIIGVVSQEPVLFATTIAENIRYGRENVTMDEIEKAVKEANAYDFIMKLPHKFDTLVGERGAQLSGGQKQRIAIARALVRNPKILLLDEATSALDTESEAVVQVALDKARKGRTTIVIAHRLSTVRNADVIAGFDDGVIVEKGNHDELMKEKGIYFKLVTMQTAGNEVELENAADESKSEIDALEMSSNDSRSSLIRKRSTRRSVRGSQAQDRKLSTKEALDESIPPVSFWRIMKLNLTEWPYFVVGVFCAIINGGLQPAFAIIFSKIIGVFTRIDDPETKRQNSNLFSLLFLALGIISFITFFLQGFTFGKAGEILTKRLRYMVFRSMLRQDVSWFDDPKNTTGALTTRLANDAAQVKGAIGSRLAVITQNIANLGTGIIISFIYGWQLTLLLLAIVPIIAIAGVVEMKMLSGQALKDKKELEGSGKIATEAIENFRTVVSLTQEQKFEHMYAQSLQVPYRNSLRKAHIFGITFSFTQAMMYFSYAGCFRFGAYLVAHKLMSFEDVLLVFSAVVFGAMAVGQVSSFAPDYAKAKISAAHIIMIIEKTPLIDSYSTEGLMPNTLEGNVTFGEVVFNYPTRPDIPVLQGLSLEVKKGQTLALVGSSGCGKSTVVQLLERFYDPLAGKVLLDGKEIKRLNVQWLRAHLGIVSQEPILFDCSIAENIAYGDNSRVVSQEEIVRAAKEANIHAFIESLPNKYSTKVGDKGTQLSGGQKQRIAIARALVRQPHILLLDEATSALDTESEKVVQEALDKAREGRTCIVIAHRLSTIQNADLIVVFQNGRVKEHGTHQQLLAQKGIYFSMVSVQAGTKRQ
The nature of data set [5]: Cellular uptake in adriamycin-resistant human A2780 cell mitochondria at 5 uM after 40 mins by confocal microscopic analysis. The settings on record: a2780, 40 min. It counts as ADME.
The test system of data set [6] is A2780. Kind of data set: Inhibition of Pgp-mediated drug efflux in adriamycin-resistant human A2780 cells assessed as localization of MitoTracker from plasma membrane to intracellular sites at 5 uM after 5 mins by confocal microscopic analysis. It counts as cell-based.
Data set [7] in a line: Cellular uptake in adriamycin-resistant human A2780 cell plasma membrane at 5 uM after 40 mins by confocal microscopic analysis. It counts as ADME, cell-based. The settings on record: a2780, 40 min.
In data set [8] the test system is A2780. Kind of data set: Inhibition of Pgp-mediated drug efflux in adriamycin-resistant human A2780 cells assessed as increase of MitoTracker accumulation at 5 uM after 5 mins by confocal microscopic analysis. It counts as cell-based.
For data set [9], the system named is A2780. Kind of data set: Inhibition of Pgp in adriamycin-resistant human A2780 cells assessed as co-immunoprecipitation with biotin-Fxr3kCbl at 5 uM after 1 hr by immunoblotting analysis. It counts as cell-based.
For data set [10], the system named is A2780. Kind of data set: Cellular uptake in adriamycin-resistant human A2780 cells at 20 uM after 5 mins by confocal microscopic analysis. It counts as ADME, cell-based. As to conditions: a2780, 5 min.
Data set [11] in a line: Cellular uptake in adriamycin-resistant human A2780 cells plasma membrane at 5 uM after 5 mins by confocal microscopic analysis. It counts as ADME, cell-based. As to conditions: a2780, 5 min.
The subject of data set [12] is A2780. Kind of data set: Inhibition of Pgp-mediated drug efflux in adriamycin-resistant human A2780 cells assessed as increase in intracellular adriamycin level at 5 uM after 40 mins by flow cytometry analysis. It counts as cell-based.
Data set [13] deals with A2780. Kind of data set: Inhibition of Pgp-mediated drug efflux in adriamycin-resistant human A2780 cells assessed as increase in adriamycin uptake at 5 uM after 1 hr by flow cytometry analysis. It counts as cell-based.
Data set [14] concerns A2780. Kind of data set: Inhibition of Pgp-mediated drug efflux in adriamycin-resistant human A2780 cells assessed as increase in adriamycin-induced cytotoxicity at 5 uM after 1 hr by CCK-8 assay. It counts as cell-based. For orientation: Formazan colour is commonly taken as a measure of viable cells.
The subject of data set [15] is A2780. Kind of data set: Inhibition of Pgp-mediated drug efflux in adriamycin-resistant human A2780 cells assessed as increase in adriamycin-induced cytotoxicity at 5 uM after 8 hrs by CCK-8 assay. It counts as cell-based.
Data set [16] relates to A2780. Kind of data set: Inhibition of Pgp-mediated drug efflux in adriamycin-resistant human A2780 cells assessed as increase in adriamycin uptake at 5 uM after 8 hrs by flow cytometry analysis. It counts as cell-based.
The subject of data set [17] is A2780. Kind of data set: Inhibition of Pgp-mediated drug efflux in adriamycin-resistant human A2780 cells assessed as increase in intracellular actinomycin level at 5 uM after 40 mins by flow cytometry analysis. It counts as cell-based.

For the compound `N=C(N)NCCC[C@@H](NC(=O)[C@H](CC1CCCCC1)NC(=O)[C@@H](CCCNC(=N)N)NC(=O)[C@H](CC1CCCCC1)NC(=O)[C@@H](CCCNC(=N)N)NC(=O)[C@@H](N)CC1CCCCC1)C(=O)N[C@@H](CCCCN)C(N)=O`, the inhibition result in data set [1] is “inactive”.
On to `CN1/C(=C\c2cc[n+](CCCCCC(=O)N[C@@H](CC3CCCCC3)C(=O)N[C@H](CCCNC(=N)N)C(=O)N[C@@H](CC3CCCCC3)C(=O)N[C@H](CCCNC(=N)N)C(=O)N[C@@H](CC3CCCCC3)C(=O)N[C@H](CCCNC(=N)N)C(=O)N[C@@H](CCCCNC(=O)CCCc3ccc(N(CCCl)CCCl)cc3)C(N)=O)c3ccccc23)Sc2ccccc21`, for which the Drug uptake entry in [2] was “Active”; in data set [5], “Not Active”; in data set [7], “Active”. In addition, the inhibition entry in [3], in data set [6], in [9] and in [1] was “Active” throughout. Further, the “inhibition (INH)” value in [4] is listed as “Active”. Moreover, the inhibition entry in [8] was “inactive”.
Take `CN1/C(=C\c2cc[n+](CCCCCC(=O)N[C@@H](CCCNC(=N)N)C(=O)N[C@@H](CCCNC(=N)N)C(=O)N[C@@H](CCCNC(=N)N)C(=O)N[C@@H](CCCNC(=N)N)C(=O)N[C@@H](CCCNC(=N)N)C(=O)N[C@@H](CCCNC(=N)N)C(=O)N[C@H](CCCCNC(=O)CCCc3ccc(N(CCCl)CCCl)cc3)C(N)=O)c3ccccc23)Sc2ccccc21`: the Drug uptake entry in data set [10] and in data set [11] was “Not Active” throughout. Also, the inhibition entry in [12] was “Active”.
Take `CN1/C(=C\c2cc[n+](CCCCCC(=O)N[C@@H](CC3CCCCC3)C(=O)N[C@H](CCCCN)C(=O)N[C@@H](CC3CCCCC3)C(=O)N[C@H](CCCCN)C(=O)N[C@@H](CC3CCCCC3)C(=O)N[C@H](CCCCN)C(=O)N[C@H](CCCCNC(=O)CCCc3ccc(N(CCCl)CCCl)cc3)C(N)=O)c3ccccc23)Sc2ccccc21`: the inhibition result in data set [13] and in [12] was “Active” in each case. The inhibition in [14] and in data set [15] was 50% in each case. Besides, the inhibition entry in data set [16] is “inactive”.
Consider `CN1/C(=C\c2cc[n+](CCCCCC(=O)N[C@@H](CC3CCCCC3)C(=O)N[C@H](CCCNC(=N)N)C(=O)N[C@@H](CC3CCCCC3)C(=O)N[C@H](CCCNC(=N)N)C(=O)N[C@@H](CC3CCCCC3)C(=O)N[C@H](CCCNC(=N)N)C(=O)N[C@H](CCCCNC(=O)CCCc3ccc(N(CCCl)CCCl)cc3)C(N)=O)c3ccccc23)Sc2ccccc21`, for which the inhibition entry in data set [17] and in data set [12] was “Active” each time. The Drug uptake entry in data set [11] was “Active”.
Take `O=C(O)CCCc1ccc(N(CCCl)CCCl)cc1`: the inhibition result in [1] was “inactive”.
`CN1/C(=C\c2cc[n+](CCCCCC(=O)N[C@@H](Cc3ccc(O)cc3)C(=O)N[C@H](CCCNC(=N)N)C(=O)N[C@@H](Cc3ccc(O)cc3)C(=O)N[C@H](CCCNC(=N)N)C(=O)N[C@@H](Cc3ccc(O)cc3)C(=O)N[C@H](CCCNC(=N)N)C(=O)N[C@H](CCCCNC(=O)CCCc3ccc(N(CCCl)CCCl)cc3)C(N)=O)c3ccccc23)Sc2ccccc21`: the Drug uptake result in data set [10] and in [11] was “Not Active” throughout. Also, the inhibition result in [12] was “Active”.
Consider `CN1/C(=C\c2cc[n+](CCCCCC(=O)N[C@@H](Cc3ccncc3)C(=O)N[C@H](CCCNC(=N)N)C(=O)N[C@@H](Cc3ccncc3)C(=O)N[C@H](CCCNC(=N)N)C(=O)N[C@@H](Cc3ccncc3)C(=O)N[C@H](CCCNC(=N)N)C(=O)N[C@H](CCCCNC(=O)CCCc3ccc(N(CCCl)CCCl)cc3)C(N)=O)c3ccccc23)Sc2ccccc21`, for which the inhibition entry in data set [13] and in data set [12] was “Active” throughout. Also, the Drug uptake entry in [11] is given as “Active”. In addition, the inhibition in data set [14] and in [15] was 50% throughout. For the same compound, in [16], the inhibition entry is “inactive”.
Consider `CN1/C(=C\c2cc[n+](CCCCCC(=O)N[C@@H](Cc3ccccc3)C(=O)N[C@H](CCCNC(=N)N)C(=O)N[C@@H](Cc3ccccc3)C(=O)N[C@H](CCCNC(=N)N)C(=O)N[C@@H](Cc3ccccc3)C(=O)N[C@H](CCCNC(=N)N)C(=O)N[C@H](CCCCNC(=O)CCCc3ccc(N(CCCl)CCCl)cc3)C(N)=O)c3ccccc23)Sc2ccccc21`, for which the inhibition result in data set [13] and in data set [12] was “Active” in each case. The Drug uptake result in [11] is on record as “Active”. For the same compound, the inhibition in data set [14] and in data set [15] was 50% throughout. The inhibition entry in data set [16] was “inactive”.
